According to patent US6342602B1, “Aryl or heteroaryl amides of tetrahydronaphthalene, chroman, thichroman and 1,2,3,4-tetrahydroquinolinecarboxlic acids, having an electron withdrawing substituent in the aromatic or heteroaromatic moiety, having retinoid-like biological activity” (Allergan Sales, Inc., priority 1995, dated 2002):

Assays:
Assay in all cases: Cancer cell line assay, incorporation of 3H-thymidine
Conditions in all cases: 10^−11 to 10^−6 molar concentration range, 96 hours
AML-193 = assay type: cell-based
Method: (§1) All trans-Retinoic acid (t-RA) (Sigma Chemicals Co., St. Louis, M.) was stored at −70° C. Prior to each experimet the compound was dissolved in 100% ethanol at 1 mM and diluted in culture medium immediately before use. All experiments were performed in subdued light. Controls were assayed using the same concentration of ethanol as present in the experimental plates and this concentration of diluent had no effect in either assay.
AML-193 was established from the blast cells classified as M5 Acute Monocyte Leukemia. The growth factor, […] (GM-CSF) was required to establish this cell line and growth factors are necessary for its continuous proliferation in chemically defined medium. AML-193 cells were grown and maintained in Iscove's modified Dulbeccous medium supplemented with 10% fetal bovine serum, glutamine and antibiotics with 5 μg/ml insulin (Sigma Chemical Co.) and 2 ng/ml rh GM-CSF (R and D Systems). The cells were diluted to a concentration of 3×10^5/ml twice a week.
(§2) ME-180 wells, harvested by trypsinization were plated in a 96 well flat bottom microtiter plate (Costar) at a density of 2,000 cells/well. The cultures were treated as described above for RPMI 8226 with the following exceptions. After incubation with thymidine the supernatant was carefully removed, and the cells were washed with a 0.5 mM solution of thymidine in phosphate buffered saline. ME180 cells were briefly treated with 50 μl of 2.5% trypsin to dislodge the cells from the plate. AML-193 cells were plated in a 96 well round bottom microtiter plate (Costar) at a density of 1,000 cells/well. To appropriate wells, retinoid test compounds were added at the final concentrations indicated for a final volume of 150 μl/well. The plates were incubated for 96 hours at 37° C. in a humidified atmosphere of 5% CO2 in air. Subsequently, 1 μCi of [5′-^3H]-thymidine (Amersham, U.K., 43 Ci/mmol specific activity) in 25 μl culture medium was added to each well and the cells were incubated for an additional 6 hours.
(§3) All cells lines were then processed as follows: the cellular DNA was precipitated with […] trichloroacetic acid onto glass fiber filter mats using a SKATRON multi-well cell harvester (Skatron Instruments, Sterling Va.). Radioactivity incorporated into DNA, as a direct measurement of cell growth, was measured by liquid scintillation counting. The numbers represent the mean disintegrations per minute of incorporated thymidine from triplicate wells±SEM.

RPMI 8226 = assay type: cell-based, human
Method: as §1
All cell lines, RPMI 8226, ME-180 and AML-193 were obtained from the American Type Culture Collection (ATCC, Rockville, Md.). RPMI 8226 is a human hematopoietic cell line obtained from the peripheral blood of a patient with multiple myeloma. The cells resemble the lymphoblastoid cells of other human lymphocyte cell lines and secrete […] light chains of immunoglobulin. RPMI-8226 cells are grown in RPMI medium (Gibco) supplemented with 10% fetal bovine serum, glutamine and antibiotics. The cells were maintained as suspension cultures grown at 37° C. in a humidified atmosphere of 5% CO2 in air. The cells were diluted to a concentration of 1×10^5/ml twice a week.
The method used for determination of the incorporation of radiolabeled thymidine was adapted from the procedure described by Shrivastav et al. RPMI-8226 cells were plated in a 96 well round bottom microtiter plate (Costar) at a density of 1,000 cells/well. To appropriate wells, retinoid test compounds were added at the final concentrations indicated for a final volume of 150 μl/well. The plates were incubated for 96 hours at 37° C. in a humidified atmosphere of 5% CO2 in air. Subsequently, 1 μCi of (5′-^3H]-thymidine (Amersham, U.K. 43 Ci/mmol specific activity) in 25 μl culture medium was added to each well and the cells were incubated for an additional 6 hours. The cultures were further processed as described below.
as §3

ME-180 = assay type: cell-based, human
Method: as §1
ME-180 is a human epidermoid carcinoma cell line derived from the cervix. The tumor was a highly invasive squamous cell carcinoma with irregular cell clusters and no significant keratinization. ME-180 cells were grown and maintained in McCoy's 5a medium (Gibco) supplemented with 10% fetal bovine serum, glutamine and antibiotics. The cells were maintained as monolayer cultures grown at 37° C. in a humidified atmosphere of 5% CO2 in air. The cells were diluted to a concentration of 1×10^5/ml twice a week.
as §2, §3

Structure (SMILES)	proliferation of the tumor cell line (incorporation of radioactive labeled thymidine) (AML-193)	proliferation of the tumor cell line (incorporation of radioactive labeled thymidine) (RPMI 8226)	proliferation of the tumor cell line (incorporation of radioactive labeled thymidine) (ME-180)
CC1(C)CCC(C)(C)c2c(Br)cc(C(=O)Nc3ccc(C(=O)O)c(F)c3)cc21 [Compound 6]	significant decrease in the proliferation	significant decrease in the proliferation	significant decrease in the proliferation
CC1(C)CCC(C)(C)c2cc(C(=O)Nc3ccc(C(=O)O)c(F)c3)c(O)cc21 [Compound 8]	significant decrease in the proliferation	significant decrease in the proliferation	significant decrease in the proliferation
CC1(C)CC(C)(C)c2cc(C(=O)Nc3ccc(C(=O)O)c(F)c3)cc(Br)c2O1 [Compound 12]	significant decrease in the proliferation	significant decrease in the proliferation	significant decrease in the proliferation
CC1(C)CC(C)(C)c2cc(C(=O)Nc3ccc(C(=O)O)c(F)c3)cc(C(F)(F)F)c2O1 [Compound 14]	significant decrease in the proliferation	significant decrease in the proliferation	significant decrease in the proliferation
CC1(C)CC(C)(C)c2cc(C(=O)Nc3ccc(C(=O)O)c(F)c3)cc(I)c2O1 [Compound 20]	significant decrease in the proliferation	significant decrease in the proliferation	significant decrease in the proliferation
